In patent US11192900B2, “Substituted 1,6-dihydropyridinones and 1,2-dihydroisoquinolinones as bet inhibitors” (NUVATION BIO INC., priority 2018, dated 2021):

Columns and labels:
[1] = tested on: MV-4-11 human acute myeloid leukemia cell line; assay: Second cell viability assay in MV-4-11 (Cell Titer-Glo); assay type: cell-based; settings: Homo sapiens; MV4-11, Cell Titer-Glo, 72 hrs; read-out: Cell Viability IC50 in MV4-11 cells
Experimental: The effects of test compounds were studied in a second cell viability assay in the MV-4-11 human acute myeloid leukemia cell line. The cells were harvested during the logarithmic growth period and counted. Cells were seeded at a count of 15000 cells per well/100 μl. After seeding, cells were incubated at 37° C., 5% CO2 for 1 hr. Cells were treated with test compounds at 8 concentrations within a desired concentration range (e.g. 5 nM-[…]) for generation of dose response curves by preparing serial dilutions of the test compound in DMSO which were further diluted with culture medium and then added to each well. The plate was further incubated for another 72 hrs in a humidified incubator at 37° C. and 5% CO2. The assay was terminated by addition of Cell Titer-Glo reagent (Promega, Madison, Wis.) at ¼ the volume of total medium per well. Contents were mixed, the plate was incubated for 10 min at room temperature and luminescence was measured. Cell viability data were plotted using GraphPad Prism (GraphPad Software, Inc., San Diego, Calif.). In addition, a nonlinear regression model with a sigmoidal dose response and variable slope within GraphPad Prism was used to calculate the IC50 value of individual test compounds.

[2] = tested on: IEC-6 rat intestinal epithelial cell line; assay: IEC-6 cell viability, Protocol A (toxicity to non-cancerous cells); assay type: cell-based; settings: IEC-6, 3000 cells per well, 96 hrs
Experimental: The effects of test compounds were also studied in the IEC-6 rat intestinal epithelial cell line to assess potential toxicity to non-cancerous cells. The cells were harvested during the logarithmic growth period and counted. In Protocol A, cells were seeded at a count of 3000 cells per well/100 μl in a 96-well plate. After seeding, cells were incubated at 37° C., 5% CO2 for 24 hr. Cells were treated with test compounds at 8 concentrations within a desired concentration range (e.g. 5 nM-10 μM) for generation of dose response curves by preparing serial dilutions of the test compound in DMSO which were further diluted with culture medium and then added to each well. The plate was further incubated for another 96 hrs in humidified incubator at 37° C. and 5% CO2. The assay was terminated by addition of resazurin (# R7017, Sigma). The plate was incubated for 4 hr at 37° C., 5% CO2 and fluorescence was measured using excitation and emission wavelengths of 535 and 590 nm, respectively. Cell viability data were plotted using GraphPad Prism (GraphPad Software, Inc., San Diego, Calif.). In addition, a nonlinear regression model with a sigmoidal dose response and variable slope within GraphPad Prism was used to calculate the IC50 value of individual test compounds. […]

MV4-11 cells = assay: Cell viability assay after wash-off (FITC-annexin V / 7-AAD flow cytometry); assay type: cell-based, human; settings: MV4-11, 0.5 or 2 μM for 2 or 4 hr, total 48 hr
Experimental: MV4-11 cells were incubated with compound (at a concentration of 0.5 or 2 μM) or mivebresib (at a concentration of 0.5 or 2 μM) for 2 or 4 hr before wash-off with culture medium and re-plated in fresh culture medium for a total of 48 hr. Cells were stained with FITC-annexin V and 7-AAD before flow cytometric analysis using a Stratedigm flow cytometer. Viable cells are negative for FITC-annexin V and 7-AAD.

c-Myc = assay: Measurement of c-Myc suppression after washoff (Western blot); assay type: cell-based, human; settings: MV4-11, 2 μM for 2 hr, washed, further 6 hr
Experimental: MV4-11 cells were incubated with 2 μM of JQ1, mivebresib or a test compound for 2 hr. The cells were then washed twice with fresh culture medium and further cultured for another 6 hr. Cells were extracted with SDS sample buffers and then subjected to Western blot analysis to measure c-Myc. Compounds 2, 3, 12, 17, 409, 411 and 412 were tested in these assays.

IC50 [1]: 28 nM
Compound: C=CS(=O)(=O)Nc1ccc(Oc2ccc(F)cc2F)c(-c2cc(NC)c(=O)n(C)c2)c1 [Compound 3, N-(4-(2,4-difluorophenoxy)-3-(1-methyl-5-(methylamino)-6-oxo-1,6-dihydropyridin-3-yl)phenyl)ethenesulfonamide]
IC50 [2]: 339 nM | cell inhibition activity after transient exposure (viable cells after wash-off) (MV4-11 cells): sustained cell inhibition activity | c-Myc suppression activity after washoff (c-Myc): sustained c-Myc suppression activity
